We go through 12 compounds from ChEMBL document CHEMBL1201862, “PubChem BioAssay data set” (2004).

Test systems include NCI/ADR-RES; SF-268; NCI-H460; NCI-H226; 786-0; SF-295; TK-10; MDA-N; A549; SNB-75; SK-OV-3; UACC-257; OVCAR-8; HCT-116; SK-MEL-5; RPMI-8226; SR; NCI-H522; CCRF-CEM; Hs-578T.
Assay in all cases: NCI anticancer screen, dose series, 48 h

Molecules are shown by their SMILES.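 How tested: cells in 96-well plates exposed to compound for 48 hours at five concentrations. GI50: concentration for 50% inhibition of growth.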 Calls of active or inactive are those of the source. Rule as the data show it: active = GI50 up to about 1.1 µM and inactive = higher.

With `Cc1ccc2c(c1)[nH]c(=S)n2C=C(C(N)=O)C(N)=O`, the GI50 in the experiment with NCI/ADR-RES, in the experiment on SF-268, in the experiment with NCI-H460, with NCI-H226, in the experiment on 786-0 and in the experiment on SF-295 was > 100 µM (inactive) each time. The GI50 in the experiment with TK-10, with MDA-N, in the experiment with A549, in the experiment with SNB-75, in the experiment with SK-OV-3 and in the experiment on UACC-257 was > 100 µM (inactive) each time. In addition, the GI50 in the experiment with OVCAR-8, in the experiment on HCT-116 and with SK-MEL-5 was > 100 µM (inactive) each time.
Take `Cc1cc(C)c2c(c1)C/C(=C\c1cccc(C)c1C(=O)O)C2=O`: the GI50 was 68.5 µM (inactive) in the experiment with RPMI-8226; 24.4 µM (inactive) with SF-268; 41.8 µM (inactive) in the experiment on NCI-H460; 44.2 µM (inactive) in the experiment with NCI-H226; 57.3 µM (inactive) with 786-0; > 100 µM (inactive) in the experiment on SR. For the same compound, the GI50 is 78 µM (inactive) in the experiment on SF-295; > 100 µM (inactive) in the experiment on TK-10; 35.3 µM (inactive) in the experiment with MDA-N; 43.3 µM (inactive) in the experiment on A549; 30.8 µM (inactive) with NCI-H522; 55 µM (inactive) with SNB-75. In addition, the GI50 with UACC-257 is 33.3 µM (inactive); in the experiment on OVCAR-8, 52.7 µM (inactive); in the experiment on CCRF-CEM, 36.6 µM (inactive); with HCT-116 it was 45.9 µM (inactive); in the experiment on SK-MEL-5, 34.7 µM (inactive).
For `CSc1[nH]nc(N)c1C(=O)Nc1ccc(C)cc1`, the GI50 in the experiment on Hs-578T is > 100 µM (inactive); in the experiment on RPMI-8226, 51.3 µM (inactive); with SF-268, 47.5 µM (inactive); in the experiment on NCI-H460, 60.1 µM (inactive); in the experiment on NCI-H226 it was > 100 µM (inactive); in the experiment on 786-0, 49.4 µM (inactive). Further, the GI50 with SR is 30.6 µM (inactive); with SF-295 it was 65 µM (inactive); with TK-10, 43 µM (inactive); in the experiment on MDA-N it was 49.5 µM (inactive); in the experiment on A549, 51.6 µM (inactive); in the experiment with NCI-H522, 26.7 µM (inactive). Besides, the GI50 was > 100 µM (inactive) in the experiment on SK-OV-3; 62.4 µM (inactive) with UACC-257; 26.1 µM (inactive) in the experiment with CCRF-CEM; 75.2 µM (inactive) in the experiment on HCT-116; 31 µM (inactive) in the experiment with SK-MEL-5.
For the compound `O=C(OCC(Cl)(Cl)Cl)N1CC[C@H](C2CCCCC2)C1`, the GI50 in the experiment on NCI/ADR-RES was 15 µM (inactive); in the experiment on SF-268, 21 µM (inactive); in the experiment with NCI-H460, 18.6 µM (inactive); in the experiment on 786-0, 16.7 µM (inactive); in the experiment with SR it was 16.3 µM (inactive); with SF-295 it was 16.2 µM (inactive). The GI50 is 18.8 µM (inactive) in the experiment on TK-10; 34.9 µM (inactive) in the experiment on MDA-N; 14.9 µM (inactive) in the experiment on A549; 17.1 µM (inactive) in the experiment with NCI-H522; 20.8 µM (inactive) in the experiment with SNB-75; 15.6 µM (inactive) with SK-OV-3. For the same compound, the GI50 with UACC-257 was 19.1 µM (inactive); in the experiment with CCRF-CEM, 15.5 µM (inactive); in the experiment on HCT-116, 14.6 µM (inactive); in the experiment with SK-MEL-5, 14.9 µM (inactive).
Regarding `COc1nc2c(c(=O)n1C)N=C(c1ccccc1)[C@H](C(CC(=O)c1ccccc1)c1ccccc1)C(c1ccccc1)N2` (stereo partly drawn), the GI50 with NCI/ADR-RES is 39.6 µM (inactive); in the experiment on RPMI-8226 it was 36.7 µM (inactive); in the experiment with NCI-H226, 69.2 µM (inactive); in the experiment on 786-0 it was 76.4 µM (inactive); in the experiment with SR it was 78 µM (inactive); in the experiment on SF-295 it was 70 µM (inactive). Besides, the GI50 in the experiment with MDA-N is 35.8 µM (inactive); in the experiment with A549, 32.3 µM (inactive); in the experiment with NCI-H522 it was 25.9 µM (inactive); with SNB-75 it was 10 µM (inactive); in the experiment on SK-OV-3, > 100 µM (inactive); in the experiment on UACC-257 it was > 100 µM (inactive). Also, the GI50 with OVCAR-8 is 54.5 µM (inactive); in the experiment on CCRF-CEM, > 100 µM (inactive); in the experiment with HCT-116, 88.1 µM (inactive); in the experiment with SK-MEL-5, 60.8 µM (inactive).
As for `ClCCCC1COc2ccccc2O1` (stereo not drawn), the GI50 is > 100 µM (inactive) in the experiment on NCI/ADR-RES; 96.6 µM (inactive) with SF-268; > 100 µM (inactive) in the experiment on NCI-H460; > 100 µM (inactive) in the experiment with NCI-H226; > 100 µM (inactive) in the experiment with 786-0; > 100 µM (inactive) with SR. In addition, the GI50 with SF-295, in the experiment on TK-10, in the experiment with MDA-N, in the experiment with A549, with NCI-H522 and in the experiment on SNB-75 was > 100 µM (inactive) in each case. Besides, the GI50 with SK-OV-3 is 8.81 µM (inactive); in the experiment with UACC-257, > 100 µM (inactive); in the experiment on OVCAR-8 it was > 100 µM (inactive); in the experiment on CCRF-CEM, > 100 µM (inactive); with HCT-116, 45.7 µM (inactive); in the experiment on SK-MEL-5 it was > 100 µM (inactive).
`COc1cc2cc(C(=O)N3CC(CCl)c4c3cc(NC(=O)C(C)Nc3c([N+](=O)[O-])cc(C(=O)NCCN(C)C)cc3[N+](=O)[O-])c3ccccc43)[nH]c2c(OC)c1OC` (stereo not drawn): the GI50 is 0.441 µM (active) in the experiment with NCI/ADR-RES; 0.0202 µM (active) in the experiment on SF-268; 0.0157 µM (active) in the experiment on NCI-H460; 0.113 µM (active) in the experiment with NCI-H226; 0.0204 µM (active) in the experiment on 786-0; 0.129 µM (active) in the experiment with SF-295. Moreover, the GI50 in the experiment with TK-10 was 0.333 µM (active); in the experiment with MDA-N, 0.158 µM (active); in the experiment with A549 it was 0.0682 µM (active); in the experiment with NCI-H522, 0.0172 µM (active); with SNB-75 it was 0.0272 µM (active); in the experiment with SK-OV-3, 0.21 µM (active). Further, the GI50 is 0.182 µM (active) in the experiment on UACC-257; 0.132 µM (active) with OVCAR-8; < 0.01 µM (active) in the experiment on CCRF-CEM; 0.0743 µM (active) in the experiment with HCT-116; 0.104 µM (active) in the experiment with SK-MEL-5.
For the compound `O=C1CC(NC(=O)C(F)(F)F)c2c(Br)sc(N3CCNCC3)c21` (stereo not drawn), the GI50 in the experiment with NCI/ADR-RES, in the experiment on Hs-578T, in the experiment with SF-268, in the experiment on NCI-H460, with NCI-H226 and in the experiment with 786-0 was > 100 µM (inactive) in each case. Besides, the GI50 in the experiment with SF-295, with TK-10, in the experiment with MDA-N, in the experiment on A549, in the experiment on NCI-H522 and with SNB-75 was > 100 µM (inactive) throughout. The GI50 in the experiment on SK-OV-3, with UACC-257, with OVCAR-8, in the experiment with CCRF-CEM, in the experiment on HCT-116 and in the experiment with SK-MEL-5 was > 100 µM (inactive) each time.
`COc1cc(CNC2=NCCC2)cc(OC)c1OC`: the GI50 in the experiment on NCI/ADR-RES, in the experiment with SF-268, with NCI-H460, in the experiment with NCI-H226, in the experiment on 786-0 and in the experiment with SF-295 was > 100 µM (inactive) in each case. Moreover, the GI50 with TK-10 was > 100 µM (inactive); in the experiment on MDA-N, 34.5 µM (inactive); in the experiment with A549, > 100 µM (inactive); in the experiment on NCI-H522 it was > 100 µM (inactive); in the experiment with SNB-75, > 100 µM (inactive); in the experiment on SK-OV-3, > 100 µM (inactive). Besides, the GI50 in the experiment on UACC-257 was > 100 µM (inactive); with OVCAR-8, > 100 µM (inactive); in the experiment with CCRF-CEM, > 100 µM (inactive); in the experiment with HCT-116, 39.6 µM (inactive); with SK-MEL-5 it was > 100 µM (inactive).
With `CS/C(=N/S(=O)(=O)c1ccc(Cl)cc1)NCCCN/C(=N\S(=O)(=O)c1ccc(Cl)cc1)SC`, the GI50 in the experiment on NCI/ADR-RES is 12.9 µM (inactive); in the experiment on RPMI-8226 it was 13.7 µM (inactive); with SF-268 it was 9.48 µM (inactive); with NCI-H460, 10.2 µM (inactive); with 786-0, 25.2 µM (inactive); in the experiment with SR, 4.34 µM (inactive). The GI50 with SF-295 was 12.7 µM (inactive); in the experiment with TK-10, 14.5 µM (inactive); with MDA-N, 12.1 µM (inactive); in the experiment with SNB-75, 15.8 µM (inactive); with SK-OV-3, 31.1 µM (inactive); in the experiment with UACC-257, 6.15 µM (inactive). Besides, the GI50 with OVCAR-8 was 19.8 µM (inactive); in the experiment with CCRF-CEM, 16.7 µM (inactive); in the experiment on HCT-116, 21.6 µM (inactive).
Take `CS(=O)(=O)OCOS(C)(=O)=O`: the GI50 is > 100 µM (inactive) in the experiment with NCI/ADR-RES; 31.9 µM (inactive) in the experiment with RPMI-8226; 39.8 µM (inactive) with NCI-H460; 40.6 µM (inactive) in the experiment on NCI-H226; > 100 µM (inactive) in the experiment on 786-0; 20.2 µM (inactive) in the experiment with SR. The GI50 with SF-295, with TK-10, with MDA-N, in the experiment with A549, with SK-OV-3 and in the experiment on UACC-257 was > 100 µM (inactive) throughout. Besides, the GI50 was > 100 µM (inactive) with OVCAR-8, 18.5 µM (inactive) with CCRF-CEM, > 100 µM (inactive) in the experiment with HCT-116 and > 100 µM (inactive) in the experiment with SK-MEL-5.
For `CCN(CC)CCC1CCCCN1CC(=O)N1c2cc(Cl)ccc2NC(=O)CC1C` (stereo not drawn), the GI50 with Hs-578T, in the experiment on RPMI-8226, in the experiment with SF-268, with NCI-H460, in the experiment with NCI-H226 and in the experiment with 786-0 was > 100 µM (inactive) throughout. Further, the GI50 in the experiment on SF-295, in the experiment with TK-10, in the experiment on MDA-N, in the experiment with A549, in the experiment on NCI-H522 and in the experiment on SK-OV-3 was > 100 µM (inactive) each time. Besides, the GI50 with OVCAR-8, in the experiment on CCRF-CEM, with HCT-116 and with SK-MEL-5 was > 100 µM (inactive) throughout.
